≈ marks a conversion by molar mass, not a printed value. Bridge positions count the residues as written; N and C are the ends. Square brackets hold non-standard residues; d marks the D form. Triazole bridges read from a SMILES are 1,4-linked. Peptide text beside a SMILES is read from it. I, II: the chains in the order shown. Lys(N3) = [N-]=[N+]=NCCCC[C@H](N)C(=O)O; hIle = CC[C@H](C)C[C@H](N)C(=O)O; Cha = N[C@@H](CC1CCCCC1)C(=O)O; Pra = C#CC[C@H](N)C(=O)O
Columns and labels:
Staphylococcus aureus [1] = experiment: Antibacterial activity against Staphylococcus aureus ATCC 25923 assessed as reduction in bacterial growth measured after 18 hrs by CLSI protocol-based Mueller-Hinton broth dilution method; type: functional
Erythrocyte = experiment: Hemolytic activity in human red blood cells; type: toxicity, cell-based; conditions: erythrocyte
Escherichia coli [2] = experiment: Antibacterial activity against Escherichia coli ATCC 25922 assessed as reduction in bacterial growth measured after 18 hrs by CLSI protocol-based Mueller-Hinton broth dilution method; type: functional
Bacillus subtilis [3] = experiment: Antibacterial activity against Bacillus subtilis ATCC 23857 assessed as reduction in bacterial growth measured after 18 hrs by CLSI protocol-based Mueller-Hinton broth dilution method; type: functional
Pseudomonas aeruginosa [4] = experiment: Antibacterial activity against Pseudomonas aeruginosa ATCC 27853 assessed as reduction in bacterial growth measured after 18 hrs by CLSI protocol-based Mueller-Hinton broth dilution method; type: functional
[5] = Hemolytic activity against Red blood cells (unknown origin) incubated for 1 hr by spectrophotometric analysis; type: toxicity, cell-based, Erythrocyte
Escherichia coli [6] = experiment: Antibacterial activity against Escherichia coli assessed as reduction in bacterial growth incubated for 20 hrs by broth microdilution assay; type: functional
Pseudomonas aeruginosa [7] = experiment: Antibacterial activity against Pseudomonas aeruginosa assessed as reduction in bacterial growth incubated for 20 hrs by broth microdilution assay; type: functional
Staphylococcus aureus [8] = experiment: Antibacterial activity against Staphylococcus aureus assessed as bacterial growth inhibition incubated for 20 hrs by broth microdilution assay; type: functional
Bacillus subtilis [9] = experiment: Antibacterial activity against Bacillus subtilis assessed as reduction in bacterial growth incubated for 20 hrs by broth microdilution assay; type: functional
Staphylococcus aureus [10] = experiment: Antibacterial activity against Methicillin-resistant Staphylococcus aureus 936 assessed as bacterial growth inhibition measured for 18 hrs by CLSI-protocol based Mueller-Hinton Broth micro-dilution assay; type: functional
Pseudomonas aeruginosa [11] = experiment: Antibacterial activity against multi-drug resistant Pseudomonas aeruginosa clinical isolate 119 assessed as reduction in bacterial growth measured after 18 to 24 hrs by CLSI protocol-based Mueller-Hinton broth dilution method; type: functional; conditions: time 18-24 hrs
Bacillus subtilis [12] = experiment: Antibacterial activity against Bacillus subtilis ATCC 23857 assessed as reduction in bacterial growth measured after 18 to 24 hrs by CLSI protocol-based Mueller-Hinton broth dilution method; type: functional; conditions: time 18-24 hrs
Escherichia coli [13] = experiment: Antibacterial activity against multi-drug resistant Escherichia coli clinical isolate 850 assessed as reduction in bacterial growth measured after 18 to 24 hrs by CLSI protocol-based Mueller-Hinton broth dilution method; type: functional; conditions: time 18-24 hrs
Staphylococcus aureus [14] = experiment: Antibacterial activity against Staphylococcus aureus ATCC 25923 assessed as reduction in bacterial growth measured after 18 to 24 hrs by CLSI protocol-based Mueller-Hinton broth dilution method; type: functional; conditions: time 18-24 hrs
Acinetobacter baumannii = experiment: Antibacterial activity against multi-drug resistant Acinetobacter baumannii clinical isolate 9840 assessed as reduction in bacterial growth measured after 18 to 24 hrs by CLSI protocol-based Mueller-Hinton broth dilution method; type: functional; conditions: time 18-24 hrs
Staphylococcus aureus [15] = experiment: Antibacterial activity against Staphylococcus aureus ATCC 25923 assessed as bacterial growth inhibition measured for 18 hrs by CLSI-protocol based Mueller-Hinton Broth micro-dilution assay; type: functional
Klebsiella pneumoniae = experiment: Antibacterial activity against Klebsiella pneumoniae ATCC 700603 assessed as reduction in bacterial growth measured after 18 to 24 hrs by CLSI protocol-based Mueller-Hinton broth dilution method; type: functional; conditions: time 18-24 hrs
Enterococcus faecium = experiment: Antimicrobial activity against Enterococcus faecium assessed as reduction in microbial growth incubated for 18 to 20 hrs by Mueller-Hinton broth based microdilution method; type: functional; conditions: time 18-20 hrs
Staphylococcus aureus [16] = experiment: Antimicrobial activity against Staphylococcus aureus ATCC 25923 assessed as reduction in microbial growth incubated for 18 to 20 hrs by Mueller-Hinton broth based microdilution method; type: functional; conditions: time 18-20 hrs
Escherichia coli [17] = experiment: Antibacterial activity against Escherichia coli ATCC 25922 assessed as bacterial growth inhibition incubate for 18 to 20 hrs by MH broth based assay; type: functional; conditions: time 18-20 hrs
[18] = Hemolytic activity in mouse RBC incubated for 1 hr; type: toxicity, cell-based, Erythrocyte; conditions: red blood cells
[19] = Hemolytic activity in human RBC; type: toxicity, cell-based, Erythrocyte; conditions: red blood cells

| SMILES | MIC (Staphylococcus aureus [1]) [µM] | HC10 (Erythrocyte) [µM] | MIC (Escherichia coli [2]) [µM] | MIC (Bacillus subtilis [3]) [µM] | MIC (Pseudomonas aeruginosa [4]) [µM] | HC50 at 1 h [5] [µM] | MIC (Escherichia coli [6]) [µM] | MIC (Pseudomonas aeruginosa [7]) [µM] | MIC (Staphylococcus aureus [8]) [µM] | MIC (Bacillus subtilis [9]) [µM] | other results |
| --- | --- | --- | --- | --- | --- | --- | --- | --- | --- | --- | --- |
| CC[C@H](C)[C@H](NC(=O)[C@H](CCCNC(=N)N)NC(=O)[C@H](CCCCN)NC(=O)[C@H](CC(C)C)NC(=O)[C@H](CC(C)C)NC(=O)CNC(=O)[C@H](Cc1cn(CCCC[C@H](NC(C)=O)C(=O)N[C@@H](CCCNC(=N)N)C(=O)N[C@@H](CCCNC(=N)N)C(=O)N[C@@H](Cc2c[nH]c3ccccc23)C(=O)N[C@@H](Cc2c[nH]c3ccccc23)C(=O)N[C@@H](CCCNC(=N)N)C(=O)N[C@@H](Cc2ccccc2)C(N)=O)nn1)NC(C)=O)C(=O)N[C@@H](CCCCN)C(=O)N[C@H](C(=O)N[C@@H](CC(C)C)C(=O)N[C@@H](CC(C)C)C(N)=O)[C@@H](C)O (I: Ac-[Pra]GLLKRIKTLL-NH2 / II: Ac-[Lys(N3)]RRWWRF-NH2; triazole I:1-II:1) | 4 (≈ 9.97 µg/mL) | > 150 | 8 (≈ 19.9 µg/mL) | 4 (≈ 9.97 µg/mL) | 16 (≈ 39.9 µg/mL) |  |  |  |  |  |  |
| CC[C@H](C)[C@H](NC(=O)[C@H](CCCCN)NC(=O)[C@H](CCCCN)NC(=O)[C@H](C)NC(=O)[C@H](CC(C)C)NC(=O)[C@H](C)NC(=O)[C@H](C)NC(=O)[C@H](CC(C)C)NC(=O)[C@H](C)NC(=O)[C@H](CCCCN)NC(=O)[C@H](CC(C)C)NC(=O)[C@H](CC(N)=O)NC(=O)[C@@H](NC(=O)[C@H](CC(C)C)NC(=O)[C@H](CC(C)C)NC(=O)[C@H](CC(C)C)NC(=O)[C@@H](NC(=O)[C@H](CCCCN)NC(=O)[C@@H](NC(=O)[C@H](CCCNC(=N)N)NC(=O)[C@H](CCCCN)NC(=O)[C@H](CC(C)C)NC(=O)[C@H](CC(C)C)NC(=O)CN)[C@@H](C)CC)[C@@H](C)O)[C@@H](C)CC)C(=O)N[C@@H](CC(C)C)C(N)=O (H-GLLKRIKTLLLINLKALAALAKKIL-NH2) |  |  |  |  |  | 35.6 | 8 (≈ 21.8 µg/mL) | 16 (≈ 43.7 µg/mL) | 8 (≈ 21.8 µg/mL) | 8 (≈ 21.8 µg/mL) |  |
| CC[C@H](C)[C@H](NC(=O)[C@H](CCCNC(=N)N)NC(=O)[C@@H](CCCCN)NC(=O)[C@H](CC(C)C)NC(=O)[C@H](CC(C)C)NC(=O)CNC(C)=O)C(=O)N[C@H](CCCCN)C(=O)N[C@H](C(=O)N[C@@H](CC(C)C)C(=O)N[C@@H](CC(C)C)C(=O)NC(Cc1cn(CCCC[C@H](NC(=O)[C@H](CC(C)C)NC(=O)[C@H](CC(C)C)NC(=O)[C@@H](NC(=O)[C@@H](CCCCN)NC(=O)[C@@H](NC(=O)[C@H](CCCNC(=N)N)NC(=O)[C@@H](CCCCN)NC(=O)[C@H](CC(C)C)NC(=O)[C@H](CC(C)C)NC(=O)CNC(C)=O)[C@@H](C)CC)[C@@H](C)O)C(N)=O)nn1)C(N)=O)[C@@H](C)O (stereo partly drawn) |  |  |  |  |  |  |  |  |  |  | MIC (Staphylococcus aureus [10]): 128 µM (≈ 338 µg/mL); MIC (Pseudomonas aeruginosa [11]): 16 µM (≈ 42.2 µg/mL); MIC (Bacillus subtilis [12]): 4 µM (≈ 10.6 µg/mL); MIC (Escherichia coli [13]): 16 µM (≈ 42.2 µg/mL); MIC (Staphylococcus aureus [14]): 128 µM (≈ 338 µg/mL); MIC (Acinetobacter baumannii): 4 µM (≈ 10.6 µg/mL); MIC (Staphylococcus aureus [15]): 128 µM (≈ 338 µg/mL); MIC (Klebsiella pneumoniae): 64 µM (≈ 169 µg/mL) |
| CC[C@H](C)C[C@H](NC(=O)[C@H](CCCNC(=N)N)NC(=O)[C@H](CCCCN)NC(=O)[C@H](CC(C)C)NC(=O)[C@H](CC1CCCCC1)NC(=O)CN)C(=O)N[C@@H](CCCCN)C(=O)N[C@H](C(=O)N[C@@H](CC(C)C)C(=O)N[C@@H](CC1CCCCC1)C(N)=O)[C@@H](C)O (H-G[Cha]LKR[hIle]KTL[Cha]-NH2) |  |  |  |  |  |  |  |  |  |  | MIC (Enterococcus faecium): 3.2 µM; MIC (Staphylococcus aureus [16]): 5.3 µM; MIC (Escherichia coli [17]): 6.25 µM (≈ 7.8 µg/mL); HC50 at 1 h [18]: 31.2 µM; HC50 [19]: 31.2 µM |
| CC[C@H](C)[C@H](NC(=O)[C@H](CCCNC(=N)N)NC(=O)[C@H](CCCCN)NC(=O)[C@H](CC(C)C)NC(=O)[C@H](CC(C)C)NC(=O)CNC(=O)[C@H](CCCCn1cc(C[C@H](NC(C)=O)C(=O)NCC(=O)N[C@@H](CC(C)C)C(=O)N[C@@H](CC(C)C)C(=O)N[C@@H](CCCCN)C(=O)N[C@@H](CCCNC(=N)N)C(=O)N[C@H](C(=O)N[C@@H](CCCCN)C(=O)N[C@H](C(=O)N[C@@H](CC(C)C)C(=O)N[C@@H](CC(C)C)C(N)=O)[C@@H](C)O)[C@@H](C)CC)nn1)NC(C)=O)C(=O)N[C@@H](CCCCN)C(=O)N[C@H](C(=O)N[C@@H](CC(C)C)C(=O)N[C@@H](CC(C)C)C(N)=O)[C@@H](C)O (I: Ac-[Lys(N3)]GLLKRIKTLL-NH2 / II: Ac-[Pra]GLLKRIKTLL-NH2; triazole I:1-II:1) | 8 (≈ 21.1 µg/mL) | 150 | 4 (≈ 10.6 µg/mL) | 2 (≈ 5.28 µg/mL) | 16 (≈ 42.2 µg/mL) |  |  |  |  |  |  |
| CC[C@H](C)[C@H](NC(=O)[C@H](CCCCN)NC(=O)[C@H](CCCCN)NC(=O)[C@H](C)NC(=O)[C@H](CC(C)C)NC(=O)[C@H](C)NC(=O)[C@H](C)NC(=O)[C@H](CC(C)C)NC(=O)[C@H](C)NC(=O)[C@H](CCCCN)NC(=O)[C@H](CC(C)C)NC(=O)[C@H](CC(N)=O)NC(=O)[C@@H](NC(=O)[C@@H]1CCCN1C(=O)[C@H](CC(C)C)NC(=O)[C@H](CC(C)C)NC(=O)[C@@H](NC(=O)[C@H](CCCCN)NC(=O)[C@@H](NC(=O)[C@H](CCCNC(=N)N)NC(=O)[C@H](CCCCN)NC(=O)[C@H](CC(C)C)NC(=O)[C@H](CC(C)C)NC(=O)CN)[C@@H](C)CC)[C@@H](C)O)[C@@H](C)CC)C(=O)N[C@@H](CC(C)C)C(N)=O (H-GLLKRIKTLLPINLKALAALAKKIL-NH2) |  |  |  |  |  | 83.8 | 2 (≈ 5.43 µg/mL) | 2 (≈ 5.43 µg/mL) | 4 (≈ 10.9 µg/mL) | 2 (≈ 5.43 µg/mL) |  |
